These results are taken from patent publication US10759816B2, “Heterocyclic compounds as RSV inhibitors” (Enanta Pharmaceuticals, Inc., priority 2016, dated 2020).

The structures appear in SMILES notation.

This test concerns genotype A, "Long" strain RSV. As to the kind of experiment: RSV-A in vitro cytoprotection assay in HEp-2 cells (ATPlite readout of cell viability). Type of test: cell-based, Human respiratory syncytial virus. The settings on record: human respiratory syncytial virus, HEp-2, HEp-2 cells, genotype A “Long” strain RSV, cytoprotection; read-out: Human RSV-A (“Long” strain) EC50. An outline of the steps:
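HEp-2 cells (8,000/well) given 2-fold compound dilutions in duplicate, then infected with RSV-A Long strain stock; viability read by ATPlite luminescence after 4 days. EC50 derived from cytoprotection; cytotoxicity measured on parallel uninfected plate.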
In general terms: Cellular ATP, detected with luciferase, serves as a proxy for viable cell number.
As usually defined, the EC50 is the midpoint of the concentration-response curve. As to `O=C(NC1CC1)c1cc2c(s1)-c1ccccc1N(C(=O)c1ccc3ccc(N4CCOCC4)nc3c1)CC2` [Example 297], the EC50 is greater than 800 nM.

Consider `O=C(NC1CC1)c1cc2c(s1)-c1ccccc1N(C(=O)c1ccc3ccc(N4CCOCC4)cc3n1)CC2` [Example 298], for which the EC50 was greater than 800 nM.

With `O=C(Nc1ccccc1)c1cc2c(s1)-c1ccccc1N(C(=O)c1cccc(N3CCOc4ccccc4C3)n1)CC2` [Example 299], the EC50 lay within 400 to 800 nM.

As for `O=C(Nc1ccccn1)c1cc2c(s1)-c1ccccc1N(C(=O)c1cccc(N3CCOc4ccccc4C3)n1)CC2` [Example 300], the EC50 was greater than 800 nM.

On to `Cc1cccnc1NC(=O)c1cc2c(s1)-c1ccccc1N(C(=O)c1cccc(N3CCOc4ccccc4C3)n1)CC2` [Example 301], for which the concentration giving a half-maximal response (EC50) is less than 400 nM.

On to `Cn1ccnc1NC(=O)c1cc2c(s1)-c1ccccc1N(C(=O)c1cccc(N3CCOc4ccccc4C3)n1)CC2` [Example 302], for which the EC50 was greater than 800 nM.

Regarding `O=C(Nc1ccc[nH]c1=O)c1cc2c(s1)-c1ccccc1N(C(=O)c1cccc(N3CCOc4ccccc4C3)n1)CC2` [Example 303], the EC50 is greater than 800 nM.

Regarding `O=C(Nc1cccc(=O)[nH]1)c1cc2c(s1)-c1ccccc1N(C(=O)c1cccc(N3CCOc4ccccc4C3)n1)CC2` [Example 304], the EC50 was greater than 800 nM.

With `O=C(NCc1ccccc1)c1cc2c(s1)-c1ccccc1N(C(=O)c1cccc(N3CCOc4ccccc4C3)n1)CC2` [Example 305], the concentration for a half-maximal effect (EC50) fell in the range of 400 to 800 nM.

In the case of `O=C(NCc1ccccn1)c1cc2c(s1)-c1ccccc1N(C(=O)c1cccc(N3CCOc4ccccc4C3)n1)CC2` [Example 306], the concentration for a half-maximal effect (EC50) is less than 400 nM.

Take `O=C(NC1CCOCC1)c1cc2c(s1)-c1ccccc1N(C(=O)c1cccc(N3CCOc4ccccc4C3)n1)CC2` [Example 307]: the concentration giving a half-maximal response (EC50) is less than 400 nM.

For the compound `CN1CCC(NC(=O)c2cc3c(s2)-c2ccccc2N(C(=O)c2cccc(N4CCOc5ccccc5C4)n2)CC3)CC1` [Example 308], the EC50 is less than 400 nM.

`O=C(N[C@@H]1CCOC1)c1cc2c(s1)-c1ccccc1N(C(=O)c1cccc(N3CCOc4ccccc4C3)n1)CC2` [Example 309]: the EC50 was less than 400 nM.

As to `O=C(N[C@H]1CCOC1)c1cc2c(s1)-c1ccccc1N(C(=O)c1cccc(N3CCOc4ccccc4C3)n1)CC2` [Example 310], the EC50 is less than 400 nM.

With `O=C(Nc1ccccc1)Nc1cc2c(s1)-c1ccccc1N(C(=O)c1cccc(N3CCOc4ccccc4C3)n1)CC2` [Example 311], the EC50 was greater than 800 nM.

As to `O=C(Nc1cc2c(s1)-c1ccccc1N(C(=O)c1cccc(N3CCOc4ccccc4C3)n1)CC2)NC1CC1` [Example 312], the concentration giving a half-maximal response (EC50) is greater than 800 nM.

For `O=C(Nc1cc2c(s1)-c1ccccc1N(C(=O)c1cccc(N3CCOc4ccccc4C3)n1)CC2)c1ccccc1` [Example 313], the EC50 lay within 400 to 800 nM.

With `O=C(Nc1cc2c(s1)-c1ccccc1N(C(=O)c1cccc(N3CCOc4ccccc4C3)n1)CC2)C1CC1` [Example 314], the EC50 is greater than 800 nM.

On to `O=C(Nc1cc2c(s1)-c1ccccc1N(C(=O)c1cccc(N3CCOc4ccccc4C3)n1)CC2)NS(=O)(=O)c1ccccc1` [Example 315], for which the half-maximal effective concentration (EC50) is greater than 800 nM.

Consider `O=C(Nc1cc2c(s1)-c1ccccc1N(C(=O)c1cccc(N3CCOc4ccccc4C3)n1)CC2)NS(=O)(=O)C1CC1` [Example 316], for which the EC50 was greater than 800 nM.

Turning to `Cc1cccc(F)c1NS(=O)(=O)c1cc2c(s1)-c1ccccc1N(C(=O)c1cccc(N3CCCOCC3)n1)CC2` [Example 317], the EC50 is greater than 800 nM.

Turning to `O=C(c1cccc(N2CCCOCC2)n1)N1CCc2cc(S(=O)(=O)NC3CCOCC3)sc2-c2ccccc21` [Example 318], the EC50 is greater than 800 nM.

For the compound `O=C(NC1CC1)c1cc2c(s1)-c1ccccc1N(C(=O)c1cccc(N3CCOc4ccccc43)n1)CC2` [Example 319], the EC50 was greater than 800 nM.

`O=C(NC1CC1)c1cc2c(s1)-c1ccccc1N(C(=O)c1cccc(N3CCOCc4ccccc43)n1)CC2` [Example 320]: the concentration giving a half-maximal response (EC50) was greater than 800 nM.

As for `COCC(C)(C)CNc1cccc(C(=O)N2CCc3cc(C(=O)NC4CC4)sc3-c3ccccc32)n1` [Example 321], the EC50 was greater than 800 nM.

As for `COc1ccccc1C(C)(C)Nc1cccc(C(=O)N2CCc3cc(C(=O)NC4CC4)sc3-c3ccccc32)n1` [Example 322], the half-maximal effective concentration (EC50) is greater than 800 nM.

On to `Cc1cccc(F)c1NC(=O)c1cc2c(s1)-c1ccccc1N(C(=O)c1cccc(N3CCCOCC3)n1)CC2` [Example 323], for which the EC50 is less than 400 nM.

With `CNC(=O)CCN(C)c1cccc(C(=O)N2CCc3cc(C(=O)Nc4c(C)cccc4F)sc3-c3ccccc32)n1` [Example 324], the half-maximal effective concentration (EC50) lay in the range of 400 to 800 nM.

Regarding `CCS(=O)(=O)CCN(C)c1cccc(C(=O)N2CCc3cc(C(=O)Nc4c(C)cccc4F)sc3-c3ccccc32)n1` [Example 325], the EC50 was less than 400 nM.

Consider `Cc1cccc(F)c1NC(=O)c1cc2c(s1)-c1ccccc1N(C(=O)c1cccc(N(CCO)C3CC3)n1)CC2` [Example 326], for which the 50% effective concentration (EC50) lay within 400 to 800 nM.

On to `Cc1cccc(F)c1NC(=O)c1cc2c(s1)-c1ccccc1N(C(=O)c1cccc(N(CCO)C3CCC3)n1)CC2` [Example 327], for which the concentration giving a half-maximal response (EC50) is less than 400 nM.

Take `COCCN(c1cccc(C(=O)N2CCc3cc(C(=O)Nc4c(C)cccc4F)sc3-c3ccccc32)n1)C1CCC1` [Example 328]: the EC50 was less than 400 nM.

Turning to `Cc1cccc(F)c1NC(=O)c1cc2c(s1)-c1ccccc1N(C(=O)c1cccc(NCCO)n1)CC2` [Example 329], the EC50 is greater than 800 nM.

With `CCOCCNc1cccc(C(=O)N2CCc3cc(C(=O)Nc4c(C)cccc4F)sc3-c3ccccc32)n1` [Example 330], the EC50 was less than 400 nM.

Consider `Cc1cccc(F)c1NC(=O)c1cc2c(s1)-c1ccccc1N(C(=O)c1cccc(NCCOC(C)C)n1)CC2` [Example 331], for which the concentration giving a half-maximal response (EC50) was less than 400 nM.

In the case of `Cc1cccc(F)c1NC(=O)c1cc2c(s1)-c1ccccc1N(C(=O)c1cccc(N3Cc4ccccc4OC(C)(C)C3)n1)CC2` [Example 332], the EC50 is less than 400 nM.

Take `Cc1cccc(F)c1NC(=O)c1cc2c(s1)-c1ccccc1N(C(=O)c1cccc(N(C)CCS(C)(=O)=O)n1)CC2` [Example 333]: the EC50 is less than 400 nM.

For the compound `COCCCN(C)c1cccc(C(=O)N2CCc3cc(C(=O)Nc4c(C)cccc4F)sc3-c3ccccc32)n1` [Example 334], the half-maximal effective concentration (EC50) was greater than 800 nM.

Regarding `Cc1cccc(F)c1NC(=O)c1cc2c(s1)-c1ccccc1N(C(=O)c1cccc(NCc3ccco3)n1)CC2` [Example 335], the EC50 was less than 400 nM.

With `Cc1cccc(F)c1NC(=O)c1cc2c(s1)-c1ccccc1N(C(=O)c1cccc(NCC3OCc4ccccc43)n1)CC2` (stereo not drawn) [Example 336], the 50% effective concentration (EC50) is less than 400 nM.

`Cc1cccc(F)c1NC(=O)c1cc2c(s1)-c1ccccc1N(C(=O)c1cccc(N(C)Cc3ccccn3)n1)CC2` [Example 337]: the EC50 is less than 400 nM.

On to `Cc1cccc(F)c1NC(=O)c1cc2c(s1)-c1ccccc1N(C(=O)c1cccc(N(C)Cc3cccnc3)n1)CC2` [Example 338], for which the concentration for a half-maximal effect (EC50) was less than 400 nM.

Consider `Cc1cccc(F)c1NC(=O)c1cc2c(s1)-c1ccccc1N(C(=O)c1cccc(N(C)Cc3ccncc3)n1)CC2` [Example 339], for which the concentration for a half-maximal effect (EC50) is less than 400 nM.

As to `Cc1cccc(F)c1NC(=O)c1cc2c(s1)-c1ccccc1N(C(=O)c1cccc(N[C@@H](C)c3ccccn3)n1)CC2` [Example 340], the EC50 was greater than 800 nM.

As to `COc1ccccc1CN(C)c1cccc(C(=O)N2CCc3cc(C(=O)Nc4c(C)cccc4F)sc3-c3ccccc32)n1` [Example 341], the 50% effective concentration (EC50) was less than 400 nM.

Take `COc1ccccc1CN(c1cccc(C(=O)N2CCc3cc(C(=O)Nc4c(C)cccc4F)sc3-c3ccccc32)n1)C1CC1` [Example 342]: the 50% effective concentration (EC50) fell in the range of 400 to 800 nM.

In the case of `COc1cccc(CN(C)c2cccc(C(=O)N3CCc4cc(C(=O)Nc5c(C)cccc5F)sc4-c4ccccc43)n2)c1` [Example 343], the EC50 is less than 400 nM.

On to `COc1ccc(CN(C)c2cccc(C(=O)N3CCc4cc(C(=O)Nc5c(C)cccc5F)sc4-c4ccccc43)n2)cc1` [Example 344], for which the EC50 is less than 400 nM.

Regarding `Cc1cccc(F)c1NC(=O)c1cc2c(s1)-c1ccccc1N(C(=O)c1cccc(NCc3cccc4ccccc34)n1)CC2` [Example 345], the half-maximal effective concentration (EC50) is greater than 800 nM.

For the compound `Cc1cccc(F)c1NC(=O)c1cc2c(s1)-c1ccccc1N(C(=O)c1cccc(N(C)Cc3cccc(-c4ccncc4)c3)n1)CC2` [Example 346], the half-maximal effective concentration (EC50) lay within 400 to 800 nM.

In the case of `COc1ccccc1[C@H](C)Nc1cccc(C(=O)N2CCc3cc(C(=O)Nc4c(C)cccc4F)sc3-c3ccccc32)n1` [Example 347], the EC50 was greater than 800 nM.

Consider `CCN(CCOC)c1cccc(C(=O)N2CCc3cc(C(=O)Nc4c(C)cccc4F)sc3-c3ccccc32)n1` [Example 348], for which the concentration giving a half-maximal response (EC50) is less than 400 nM.

Consider `Cc1cc(CNc2cccc(C(=O)N3CCc4cc(C(=O)Nc5c(C)cccc5F)sc4-c4ccccc43)n2)on1` [Example 349], for which the half-maximal effective concentration (EC50) is less than 400 nM.

As for `Cc1cccc(F)c1NC(=O)c1cc2c(s1)-c1ccccc1N(C(=O)c1cccc(NCc3ncco3)n1)CC2` [Example 350], the EC50 was less than 400 nM.

Consider `Cc1cccc(F)c1NC(=O)c1cc2c(s1)-c1ccccc1N(C(=O)c1cccc(N(C)Cc3cccc(-c4cccnc4)c3)n1)CC2` [Example 351], for which the half-maximal effective concentration (EC50) was greater than 800 nM.

With `Cc1cccc(F)c1NC(=O)c1cc2c(s1)-c1ccccc1N(C(=O)c1cccc(N(C)Cc3cccc(-c4ccccc4)c3)n1)CC2` [Example 352], the EC50 lay within 400 to 800 nM.

Take `Cc1cccc(F)c1NC(=O)c1cc2c(s1)-c1ccccc1N(C(=O)c1cccc(N(C)Cc3cccc4ccccc34)n1)CC2` [Example 353]: the EC50 is greater than 800 nM.

As for `Cc1cccc(F)c1NC(=O)c1cc2c(s1)-c1ccccc1N(C(=O)c1cccc(N(C)Cc3ccc4ccccc4c3)n1)CC2` [Example 354], the EC50 was greater than 800 nM.

Regarding `Cc1cccc(F)c1NC(=O)c1cc2c(s1)-c1ccccc1N(C(=O)c1cccc(N(C)Cc3ccccc3-c3ccccc3)n1)CC2` [Example 355], the EC50 is greater than 800 nM.

For `COc1ccc2cc(CN(C)c3cccc(C(=O)N4CCc5cc(C(=O)Nc6c(C)cccc6F)sc5-c5ccccc54)n3)ccc2c1` [Example 356], the 50% effective concentration (EC50) was greater than 800 nM.
